Assay results as given in patent US20250313563A1, “GLYCOGEN SYNTHASE KINASE 3 INHIBITORS AND USES THEREOF” (The Broad Institute, Inc., priority 2022, published 2025).
Like-named read-outs stand apart in the source and are kept apart here.

Tests used:
[1] = biological target: GSK3α (GST-full length GSK3α) (Homo sapiens (Human), UniProt P49840); experiment: GSK3α TR-FRET kinase assay; type: biochemical
How it was run: (§1)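 IC50s came from the normalized 665/615 TR-FRET ratio after Tb-anti-pSer641 antibody and streptavidin-d2 detection of phosphorylated biotin-glycogen synthase peptide (200 nM). ATP was 4 μM for GSK3α, 2 μM for GSK3b, or 1 mM; 1 nM enzyme, 100 min, ambient, pH 7.5, after 30-min compound preincubation.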

[2] = biological target: GSK3b (GST-full length GSK3b) (Homo sapiens (Human), UniProt P49841); experiment: GSK3b TR-FRET kinase assay; type: biochemical
How it was run: as §1

[3] = 1 nM GSK3α, 4 μM ATP, 30 minute preincubation, geometric mean, read-out: GSK3-A TR-FRET BIOCHEMICAL (TR-FRET), GMean, IC50
[4] = 1 nM GSK3b, 2 μM ATP, 30 minute preincubation, geometric mean, read-out: GSK3-B TR-FRET BIOCHEMICAL (TR-FRET), GMean, IC50
[5] = 1 nM GSK3α, 4 μM ATP, 30 minute preincubation, Table 16, read-out: GSK3-A TR-FRET BIOCHEMICAL (TR-FRET)
[6] = read-out: GSK3-A (TR-FRET 1 mM ATP), GMean, IC50, 1 mM ATP, geometric mean
[7] = 1 nM GSK3b, 2 μM ATP, 30 minute preincubation, Table 16, read-out: GSK3-B TR-FRET BIOCHEMICAL (TR-FRET)
[8] = read-out: GSK3-B (TR-FRET 1 mM ATP), GMean, IC50, 1 mM ATP, geometric mean
[9] = 1 nM GSK3α, 4 μM ATP, 30 minute preincubation, read-out: GSK3-A TR-FRET BIOCHEMICAL (TR-FRET), IC50
[10] = 1 nM GSK3b, 2 μM ATP, 30 minute preincubation, read-out: GSK3-B TR-FRET BIOCHEMICAL (TR-FRET), IC50

Chain of GSK3α (GST-full length GSK3α) (P49840 whole entry): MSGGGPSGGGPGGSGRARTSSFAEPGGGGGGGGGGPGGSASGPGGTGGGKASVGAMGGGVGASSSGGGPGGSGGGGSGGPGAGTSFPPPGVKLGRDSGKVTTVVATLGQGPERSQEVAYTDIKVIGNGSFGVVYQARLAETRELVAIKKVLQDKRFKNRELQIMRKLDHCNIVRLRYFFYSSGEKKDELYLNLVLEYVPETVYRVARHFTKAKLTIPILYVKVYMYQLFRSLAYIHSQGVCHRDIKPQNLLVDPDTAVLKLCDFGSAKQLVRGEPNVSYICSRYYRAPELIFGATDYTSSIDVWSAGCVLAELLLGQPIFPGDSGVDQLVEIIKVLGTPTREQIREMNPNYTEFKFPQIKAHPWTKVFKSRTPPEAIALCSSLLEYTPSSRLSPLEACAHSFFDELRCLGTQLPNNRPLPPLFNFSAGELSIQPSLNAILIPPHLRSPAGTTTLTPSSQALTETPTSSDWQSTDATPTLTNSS
Chain of GSK3b (GST-full length GSK3b) (P49841 whole entry): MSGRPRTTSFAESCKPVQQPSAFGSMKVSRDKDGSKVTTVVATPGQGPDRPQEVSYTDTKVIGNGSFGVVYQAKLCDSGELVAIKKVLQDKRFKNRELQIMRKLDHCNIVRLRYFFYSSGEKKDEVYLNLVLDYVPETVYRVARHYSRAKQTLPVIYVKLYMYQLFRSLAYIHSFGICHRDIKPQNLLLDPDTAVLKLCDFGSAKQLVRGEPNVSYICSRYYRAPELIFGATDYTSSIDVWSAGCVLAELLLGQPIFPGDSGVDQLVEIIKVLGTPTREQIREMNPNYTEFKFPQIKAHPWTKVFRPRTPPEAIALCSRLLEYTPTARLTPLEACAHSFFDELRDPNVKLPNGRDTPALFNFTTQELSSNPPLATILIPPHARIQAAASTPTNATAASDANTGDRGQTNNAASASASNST

SMILES	IC50 [1, 3] [nM]	IC50 [2, 4] [nM]	further results
CC[C@]1(c2cccc(-c3ccnc4cc(F)ccc34)c2)C2=C(CC(C)(C)NC2=O)Nc2n[nH]cc21 [Compound 948528]	≤ 100	100 to 1000	
CCC1(c2cccc(-c3c(F)cncc3OC)c2)C2=C(Nc3n[nH]cc31)C(F)C(C)(C)CC2=O (stereo not shown) [Compound 948545, 4-ethyl-8-fluoro-4-(3-(3-fluoro-5-methoxypyridin-4-yl)phenyl)-7,7-dimethyl-2,4,6,7,8,9-hexahydro-SH-pyrazolo[3,4-b]quinolin-5-one]			IC50 [1, 5]: ≤ 100 nM; IC50 [1, 6]: ≤ 100 nM; IC50 [2, 7]: ≤ 100 nM; IC50 [2, 8]: 100 to 1000 nM
CCC1(c2cccc(-c3c(F)cncc3OC)c2)C2=C(Nc3n[nH]cc31)C(F)C(C)(C)CC2=O (stereo not shown) [Compound 948547, 4-ethyl-8-fluoro-4-(3-(3-fluoro-5-methoxypyridin-4-yl)phenyl)-7,7-dimethyl-2,4,6,7,8,9-hexahydro-SH-pyrazolo[3,4-b]quinolin-5-one]			IC50 [1, 5]: ≤ 100 nM; IC50 [1, 6]: 100 to 1000 nM; IC50 [2, 7]: ≤ 100 nM; IC50 [2, 8]: 1000 to 5000 nM
CCC1(c2cccc(-c3c(F)cncc3OC)c2)C2=C(Nc3n[nH]cc31)C(F)C(C)(C)CC2=O (stereo not shown) [Compound 948548, 4-ethyl-8-fluoro-4-(3-(3-fluoro-5-methoxypyridin-4-yl)phenyl)-7,7-dimethyl-2,4,6,7,8,9-hexahydro-SH-pyrazolo[3,4-b]quinolin-5-one]			IC50 [1, 5]: ≤ 100 nM; IC50 [2, 7]: 100 to 1000 nM
CCC1(c2cccc(-c3c(F)cncc3OC)c2)C2=C(CN(Cc3ccccc3)C2=O)Nc2n[nH]cc21 (stereo not shown) [Compound 948550]			IC50 [1, 9]: ≤ 100 nM; IC50 [2, 10]: 100 to 1000 nM
CCC1(c2cccc(-c3ccnc4c3CCCC4)c2)C2=C(CN(Cc3ccccc3)C2=O)Nc2n[nH]cc21 (stereo not shown) [Compound 948551]			IC50 [1, 9]: ≤ 100 nM; IC50 [2, 10]: 100 to 1000 nM
CC[C@]1(c2cccc(-c3ccnc4c3CCCC4)c2)C2=C(CN(Cc3ccccc3)C2=O)Nc2n[nH]cc21 [Compound 948552]			IC50 [1, 9]: 100 to 1000 nM; IC50 [2, 10]: > 5000 nM
CCC1(c2cccc(C(F)(F)C(F)(F)F)c2)C2=C(CC(C)(C)CC2=O)Nc2n[nH]cc21 (stereo not shown) [Compound 948615]			IC50 [1, 5]: ≤ 100 nM; IC50 [2, 7]: ≤ 100 nM
CCC1(c2cccc(-c3ccnc4cc(F)c(F)cc34)c2)C2=C(CC(C)(C)NC2=O)Nc2n[nH]cc21 (stereo not shown) [Compound 948638]	> 5000	> 5000	
CCc1cnccc1-c1cccc([C@]2(CC)C3=C(CC(C)(C)NC3=O)Nc3n[nH]cc32)c1 [Compound 948639]	≤ 100	100 to 1000	
CCC1(c2cccc(-c3ccnc(C)c3)c2)C2=C(CC3(CCCC3)NC2=O)Nc2n[nH]cc21 (stereo not shown) [Compound 948641]	> 5000	> 5000	
CC[C@@]1(c2cccc(-c3ccncc3C3CC3)c2)C2=C(CC(C)(C)NC2=O)Nc2n[nH]cc21 [Compound 948642]	100 to 1000	1000 to 5000	
CC[C@@]1(c2cccc(-c3ccncc3OC3CC3)c2)C2=C(CC(C)(C)NC2=O)Nc2n[nH]cc21 [Compound 948643]	> 5000	> 5000	
CC[C@@]1(c2cccc(-c3ccnc4cc(Cl)c(C)cc34)c2)C2=C(CC(C)(C)NC2=O)Nc2n[nH]cc21 [Compound 948645]	100 to 1000	> 5000	
CC[C@@]1(c2cccc(-c3cc(OC)nc4ccccc34)c2)C2=C(CC(C)(C)NC2=O)Nc2n[nH]cc21 [Compound 948647]	> 5000	> 5000	
CCC1(c2cccc(-c3ccncc3C)c2)C2=C(CC3(CCOC3)NC2=O)Nc2n[nH]cc21 (stereo not shown) [Compound 948648]	> 5000	> 5000	
CCC1(c2cccc(-c3ccnc4cc(OC)ccc34)c2)C2=C(CC(C)(C)NC2=O)Nc2n[nH]cc21 (stereo not shown) [Compound 948649]	> 5000	> 5000	
CC[C@@]1(c2cccc(-c3ccnc4c(Cl)cccc34)c2)C2=C(CC(C)(C)NC2=O)Nc2n[nH]cc21 [Compound 948650]	> 5000	> 5000	
CCC1(c2cccc(-c3ccnc4ccc(C)cc34)c2)C2=C(CC(C)(C)NC2=O)Nc2n[nH]cc21 (stereo not shown) [Compound 948651]	> 5000	> 5000	

SMILES	IC50 [1, 3] [nM]	IC50 [2, 4] [nM]	further results
CCC1(c2cccc(-c3ccnc(N4CCOCC4)c3)c2)C2=C(CC(C)(C)NC2=O)Nc2n[nH]cc21 (stereo not shown) [Compound 948653]	≤ 100	≤ 100	
CCC1(c2cccc(-c3ccnc4cc(Cl)c(C)cc34)c2)C2=C(CC(C)(C)NC2=O)Nc2n[nH]cc21 (stereo not shown) [Compound 948654]	> 5000	> 5000	
CCC1(c2cccc(-c3ccncc3OC3CC3)c2)C2=C(CC(C)(C)NC2=O)Nc2n[nH]cc21 (stereo not shown) [Compound 948656]	> 5000	> 5000	
CCc1cnccc1-c1cccc(C2(CC)C3=C(CC(C)(C)NC3=O)Nc3n[nH]cc32)c1 (stereo not shown) [Compound 948657]	> 5000	> 5000	
CC[C@@]1(c2cccc(-c3ccnc4ccc(C)cc34)c2)C2=C(CC(C)(C)NC2=O)Nc2n[nH]cc21 [Compound 948658]	> 5000	> 5000	
CCC1(c2cccc(-c3ccnc4c(Cl)cccc34)c2)C2=C(CC(C)(C)NC2=O)Nc2n[nH]cc21 (stereo not shown) [Compound 948659]	> 5000	> 5000	
CCC1(c2cccc(-c3ccnc4cc(OC)ccc34)c2)C2=C(CC(C)(C)NC2=O)Nc2n[nH]cc21 (stereo not shown) [Compound 948661]	≤ 100	100 to 1000	
CCC1(c2cccc(-c3ccnc(N4CCCCC4)c3)c2)C2=C(CC(C)(C)NC2=O)Nc2n[nH]cc21 (stereo not shown) [Compound 948663]	> 5000	> 5000	
CCC1(c2cccc(-c3cc(C)ncc3F)c2)C2=C(CC(C)(C)NC2=O)Nc2n[nH]c(C)c21 (stereo not shown) [Compound 948761]	≤ 100	≤ 100	
CCC1(c2cccc(OC)c2)C2=C(CC(C)(C)NC2=O)Nc2n[nH]c(C)c21 (stereo not shown) [Compound 948763]	≤ 100	100 to 1000	
CCC1(c2cccc(Oc3ncccn3)c2)C2=C(CC(C)(C)NC2=O)Nc2n[nH]cc21 (stereo not shown) [Compound 948764]	≤ 100	100 to 1000	
CCC1(c2cccc(-c3cc(C)nnc3C)c2)C2=C(CC(C)(C)NC2=O)Nc2n[nH]c(C)c21 (stereo not shown) [Compound 948765]	≤ 100	≤ 100	
CCC1(c2cccc(-c3cnn(C)c3)c2)C2=C(CC(C)(C)NC2=O)Nc2n[nH]c(Cl)c21 (stereo not shown) [Compound 948767]	≤ 100	≤ 100	
CCC1(c2cccc(-c3cn(C)nc3C)c2)C2=C(CC(C)(C)NC2=O)Nc2n[nH]c(Cl)c21 (stereo not shown) [Compound 948768]	≤ 100	≤ 100	
CC[C@]1(c2cccc(-c3ccnc4c3CCC4)c2)C2=C(CC(C)(C)NC2=O)Nc2n[nH]c(C(F)(F)F)c21 [Compound 948769]	100 to 1000	100 to 1000	
CC[C@]1(c2cccc(-c3ccncc3F)c2)C2=C(CC(C)(C)NC2=O)Nc2[nH]nc(C(F)(F)F)c21 [Compound 948770]	100 to 1000	100 to 1000	
CC[C@]1(c2cccc(S(=O)(=O)C3CC3)c2)C2=C(CC(C)(C)NC2=O)Nc2[nH]nc(C(F)(F)F)c21 [Compound 948771]	≤ 100	≤ 100	IC50 [1, 6]: ≤ 100 nM; IC50 [2, 8]: 100 to 1000 nM
CCC1(c2cccc(-c3ccnc(C)c3)c2)C2=C(CC(C)(C)NC2=O)Nc2n[nH]c(C(F)(F)F)c21 (stereo not shown) [Compound 948773]	1000 to 5000	> 5000	
CC[C@@]1(c2cccc(-c3ccnc(C)c3)c2)C2=C(CC(C)(C)NC2=O)Nc2n[nH]c(C(F)(F)F)c21 [Compound 948774]	≤ 100	≤ 100	
